Laboratory results reported in the NIST ThermoML archive (doi:10.1021/je7001013).

Experiments:
[1] = xn = mol fraction of the nth substance listed
[2] = refractive index (Na D-line) (dimensionless); xn = mol fraction of the nth substance listed; settings: 101 kPa, Liquid
[3] = refractive index (Na D-line) (dimensionless); settings: 101.33 kPa, Liquid

CC[S+]([O-])CC [diethyl sulfoxide] + O
Settings | refractive index, [2] | surface tension liquid-gas, [1] [mN/m]
298.15 K, x1 = 0.0099 | 1.3415 | 65.5
298.15 K, x1 = 0.0207 | – | 62.5
298.15 K, x1 = 0.0513 | 1.3735 | 55.4
298.15 K, x1 = 0.1001 | 1.399 | 50.9
298.15 K, x1 = 0.1999 | 1.43 | 46
298.15 K, x1 = 0.2999 | 1.446 | 42.8
298.15 K, x1 = 0.4091 | 1.457 | –
298.15 K, x1 = 0.4908 | – | 40.4
298.15 K, x1 = 0.5189 | 1.458 | –
298.15 K, x1 = 0.5803 | 1.4605 | –
298.15 K, x1 = 0.7123 | 1.4645 | 37.6
298.15 K, x1 = 0.7741 | 1.466 | –
303.15 K, x1 = 0.0099 | 1.332 | 64.8
303.15 K, x1 = 0.0207 | – | 61.5
303.15 K, x1 = 0.0513 | 1.3675 | 54.9
303.15 K, x1 = 0.1001 | 1.373 | 50.2
303.15 K, x1 = 0.1999 | 1.428 | 45.2
303.15 K, x1 = 0.2999 | 1.4445 | 42
303.15 K, x1 = 0.4091 | 1.4555 | –
303.15 K, x1 = 0.4908 | – | 39.8
303.15 K, x1 = 0.5189 | 1.457 | –
303.15 K, x1 = 0.5803 | 1.4585 | –
303.15 K, x1 = 0.7123 | 1.463 | 37.1
303.15 K, x1 = 0.7741 | 1.464 | –
308.15 K, x1 = 0.0099 | 1.3315 | 64.1
308.15 K, x1 = 0.0207 | – | 60.4
308.15 K, x1 = 0.0513 | 1.3685 | 54
308.15 K, x1 = 0.1001 | 1.372 | 49.5
308.15 K, x1 = 0.1999 | 1.4265 | 44.2
308.15 K, x1 = 0.2999 | 1.443 | 41.9
308.15 K, x1 = 0.4091 | 1.453 | –
308.15 K, x1 = 0.4908 | – | 39.3
308.15 K, x1 = 0.5189 | 1.455 | –
308.15 K, x1 = 0.5803 | 1.4565 | –
308.15 K, x1 = 0.7123 | 1.4615 | 37
308.15 K, x1 = 0.7741 | 1.462 | –
313.15 K, x1 = 0.0099 | – | 62.8
313.15 K, x1 = 0.0207 | – | 59.3
313.15 K, x1 = 0.0513 | – | 53.1
313.15 K, x1 = 0.1001 | – | 48.4
313.15 K, x1 = 0.1999 | – | 47.1
313.15 K, x1 = 0.2999 | – | 44.3
313.15 K, x1 = 0.4908 | – | 38.6
313.15 K, x1 = 0.7123 | – | 36.5
318.15 K, x1 = 0.0099 | – | 61.8
318.15 K, x1 = 0.0207 | – | 58.4
318.15 K, x1 = 0.0513 | – | 52.4
318.15 K, x1 = 0.1001 | – | 47.7
318.15 K, x1 = 0.1999 | – | 46.1
318.15 K, x1 = 0.2999 | – | 43.2
318.15 K, x1 = 0.4908 | – | 38
318.15 K, x1 = 0.7123 | – | 35.7
323.15 K, x1 = 0.0099 | – | 60.8
323.15 K, x1 = 0.0207 | – | 56.8
323.15 K, x1 = 0.0513 | – | 50.5
323.15 K, x1 = 0.1001 | – | 46.5
323.15 K, x1 = 0.1999 | – | 45.3
323.15 K, x1 = 0.2999 | – | 41.6
323.15 K, x1 = 0.4908 | – | 37.3
323.15 K, x1 = 0.7123 | – | 35
328.15 K, x1 = 0.0099 | – | 59.9
328.15 K, x1 = 0.0207 | – | 56.4
328.15 K, x1 = 0.0513 | – | 49.7
328.15 K, x1 = 0.1001 | – | 45.7
328.15 K, x1 = 0.1999 | – | 43.4
328.15 K, x1 = 0.2999 | – | 40.7
328.15 K, x1 = 0.4908 | – | 36.6
328.15 K, x1 = 0.7123 | – | 34.4

C[S+](C)[O-] [dimethyl sulfoxide]
Settings | surface tension liquid-gas [mN/m]
298.15 K | 41.7
303.15 K | 41
308.15 K | 40.3
313.15 K | 39.7
318.15 K | 39.1
323.15 K | 38.5
328.15 K | 37.9

[3]
Settings | refractive index
298.15 K | 1.4765
303.15 K | 1.474
308.15 K | 1.472

CCCS(=O)CCC [dipropyl sulfoxide] + O
Settings | refractive index, [2] | surface tension liquid-gas, [1] [mN/m]
298.15 K, x1 = 0.0105 | 1.344 | 52.3
298.15 K, x1 = 0.01985 | 1.3516 | –
298.15 K, x1 = 0.0199 | – | 47.4
298.15 K, x1 = 0.0469 | 1.374 | 42.2
298.15 K, x1 = 0.0998 | 1.4009 | 39.6
298.15 K, x1 = 0.2019 | 1.4305 | 37.5
298.15 K, x1 = 0.2809 | 1.4395 | 37.2
298.15 K, x1 = 0.3975 | 1.446 | 35.8
298.15 K, x1 = 0.5001 | – | 35.4
298.15 K, x1 = 0.5049 | 1.4502 | –
298.15 K, x1 = 0.6818 | 1.455 | 34.3
298.15 K, x1 = 0.9002 | 1.458 | –
303.15 K, x1 = 0.0105 | 1.343 | 51.1
303.15 K, x1 = 0.01985 | 1.351 | –
303.15 K, x1 = 0.0199 | – | 46.4
303.15 K, x1 = 0.0469 | 1.3725 | 41.5
303.15 K, x1 = 0.0998 | 1.399 | 38.9
303.15 K, x1 = 0.2019 | 1.4285 | 37
303.15 K, x1 = 0.2809 | 1.4375 | 36.5
303.15 K, x1 = 0.3975 | 1.4455 | 35.2
303.15 K, x1 = 0.5001 | – | 34.9
303.15 K, x1 = 0.5049 | 1.4495 | –
303.15 K, x1 = 0.6818 | 1.454 | 34.2
303.15 K, x1 = 0.9002 | 1.4555 | –
308.15 K, x1 = 0.0105 | 1.342 | 49.9
308.15 K, x1 = 0.01985 | 1.3506 | –
308.15 K, x1 = 0.0199 | – | 45.3
308.15 K, x1 = 0.0469 | 1.3711 | 40.7
308.15 K, x1 = 0.0998 | 1.398 | 38.1
308.15 K, x1 = 0.2019 | 1.4245 | 36.5
308.15 K, x1 = 0.2809 | 1.435 | 36
308.15 K, x1 = 0.3975 | 1.4445 | 34.5
308.15 K, x1 = 0.5001 | – | 34.3
308.15 K, x1 = 0.5049 | 1.4486 | –
308.15 K, x1 = 0.6818 | 1.452 | 33.5
308.15 K, x1 = 0.9002 | 1.454 | –
313.15 K, x1 = 0.0105 | – | 48.8
313.15 K, x1 = 0.0199 | – | 44.4
313.15 K, x1 = 0.0469 | – | 40
313.15 K, x1 = 0.0998 | – | 37.3
313.15 K, x1 = 0.2019 | – | 35.9
313.15 K, x1 = 0.2809 | – | 35
313.15 K, x1 = 0.3975 | – | 34.1
313.15 K, x1 = 0.5001 | – | 33.8
313.15 K, x1 = 0.6818 | – | 32.9
318.15 K, x1 = 0.0105 | – | 47.6
318.15 K, x1 = 0.0199 | – | 44.3
318.15 K, x1 = 0.0469 | – | 39.3
318.15 K, x1 = 0.0998 | – | 36.6
318.15 K, x1 = 0.2019 | – | 35
318.15 K, x1 = 0.2809 | – | 34.4
318.15 K, x1 = 0.3975 | – | 33.4
318.15 K, x1 = 0.5001 | – | 33.3
318.15 K, x1 = 0.6818 | – | 32.2
323.15 K, x1 = 0.0105 | – | 46.6
323.15 K, x1 = 0.0199 | – | 43.2
323.15 K, x1 = 0.0469 | – | 38.5
323.15 K, x1 = 0.0998 | – | 35.7
323.15 K, x1 = 0.2019 | – | 34.4
323.15 K, x1 = 0.2809 | – | 33.8
323.15 K, x1 = 0.3975 | – | 32.8
323.15 K, x1 = 0.5001 | – | 32.7
323.15 K, x1 = 0.6818 | – | 31.6
328.15 K, x1 = 0.0105 | – | 45.6
328.15 K, x1 = 0.0199 | – | 42.2
328.15 K, x1 = 0.0469 | – | 37.8
328.15 K, x1 = 0.0998 | – | 35
328.15 K, x1 = 0.2019 | – | 33.7
328.15 K, x1 = 0.2809 | – | 33.1
328.15 K, x1 = 0.3975 | – | 32.2
328.15 K, x1 = 0.5001 | – | 32.1
328.15 K, x1 = 0.6818 | – | 30.8
